Laboratory results published in PubChem BioAssay (NCI).
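GI50 marks 50% less growth. TGI: total growth inhibition.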

What was measured:
Assay in all cases: inhibition of tumour cell growth, NCI panel, 384-well format
[1] = test system: LOX IMVI melanoma
[2] = test system: MCF7 breast
[3] = test system: M14 melanoma
[4] = test system: IGROV1 ovarian
[5] = test system: OVCAR-4 ovarian
[6] = test system: 786-0 renal
[7] = test system: MDA-MB-435 melanoma
[8] = test system: A549 NSCLC
[9] = test system: CAKI-1 renal
[10] = test system: SK-MEL-28 melanoma
[11] = test system: HOP-62 NSCLC
[12] = test system: SK-MEL-5 melanoma
[13] = test system: TK-10 renal

C[C@H](NC(=O)c1c(C(F)F)nn(C)c1Oc1cccc(C(F)(F)F)c1)c1ccc(C(=O)O)cc1
GI50 [1]: > 100 µM
TGI [1]: > 100 µM
GI50 [2]: > 100 µM
TGI [2]: > 100 µM
GI50 [3]: > 100 µM
TGI [3]: > 100 µM
GI50 [4]: > 100 µM
TGI [4]: > 100 µM
GI50 [5]: > 100 µM
TGI [5]: > 100 µM
GI50 [6]: > 100 µM
TGI [6]: > 100 µM
GI50 [7]: > 100 µM
TGI [7]: > 100 µM
GI50 [8]: > 100 µM
TGI [8]: > 100 µM
GI50 [9]: > 100 µM
TGI [9]: > 100 µM
GI50 [10]: > 100 µM
TGI [10]: > 100 µM
GI50 [11]: > 100 µM
TGI [11]: > 100 µM
GI50 [12]: > 100 µM
TGI [12]: > 100 µM
GI50 [13]: > 100 µM
TGI [13]: > 100 µM
